Results on 18 compounds are retold here after paper PMC8668966, “Short-chain aurachin D derivatives are selective inhibitors of E. coli cytochrome bd-I and bd-II oxidases” (Scientific Reports, 2021).

≈ marks a conversion by molar mass, not a printed value. Read-outs that look alike come from different tables or passages of the source.

One test deals with T1, cytochrome bd-I (Escherichia coli, UniProt P0ABJ9).
T1 construct: made in house; host or cells: E. coli C43 (DE3) Δ bo3 (CLY)
Kind of test: Oxygen reductase activity assay (Clark-type electrode) with purified cytochrome bd-I. The format is biochemical, E. coli. Conditions: for remaining activity at 250 µM / Rest activity in % of control activity bd-I: compound 250 µM, 200 µM ubiquinone-1, 5 mM dithiothreitol, 30 nM enzyme, RT, 100% = DMSO, mean ± S.E.M. (n=3); for remaining activity at 250 µM: read-out: Rest activity in % of control activity bd-I; for Ki: final enzyme concentration 30 nM, inhibitor concentration at 50% residual oxygen reductase activity (EC50 of DoseResp fit), read-out: Ki^app bd-I. An excerpt: (§1) To determine inhibition of our test set compounds and to assess the selectivity for bd-type oxidases we tested the inhibitory effect via […] determination of oxygen reduction using purified protein samples and ubiquinol-1 as electron donor. In this set-up, we kept the compound at a high molar excess compared to the protein. Figures 3 and 4 illustrate the screening results for cytochromes bd-I, bd-II and bo3, respectively. A comparative overview of all compounds is given in SI Table S1. […]. […] Among these compounds, AC2-11 has the strongest inhibitory effect on all three oxidases. […]. For AurC and its analogues it was reported that replacement of N–OH with an N–H group decreases the inhibitory potential only for cytochrome bo3, keeping a strong inhibitory effect on cytochrome bd[17]. Correspondingly, we observed a clear inhibition of cytochromes bd-I and bd-II with all AurD-type compounds. Regarding the long-chain derivatives AC4-11, AC2-11 and AD3-11, inhibition of cytochromes bd-I and bd-II and bo3 highlight the importance of the residue at the nitrogen group at position 1 for enzyme selectivity. […]. […] Regarding the cyclic derivatives, 7-MTHA causes only a minor inhibition of cytochrome bd-I. This effect could be due to the methoxy group in position 7 that introduces an additional polarity to the molecule. Steric hindrance as a consequence of the third ring structure is less likely, because AD5-cyclo is bulkier and reduces activity < 10% of cytochromes bd-I and bd-II.
(§2) Oxygen reductase activity was measured as oxygen consumption rate of purified protein by OX-MR Clark-type oxygen electrode linked to a PA 2000 picoammeter and to the ADC-216 AD-converter. Data recording with SensorTrace Basic 2.1 software (all Unisense, Denmark). Measurements were performed at RT in stirred 2 ml—glass vials with a total reaction volume of 600 µl. Oxygen consumption was initiated by adding 30 nM (bd-I, bo3) or 120 nM (bd-II) of the respective enzyme to the equilibrated mixture containing 20 mM NaPi (pH 8.0), 50 mM NaCl, 0.02% DDM, 5 mM Dithiothreitol (DTT) and 200 µM Ubiquinone-1 (2,3-Dimethoxy-5-methyl-6-(3-methyl-2-buten-1-yl)-1,4-benzoquinone). A 10 min equilibration period was implemented prior to enzyme addition. Inhibition experiments were performed with 250 µM of the respective compound from 20 mM stock solution in DMSO before equilibration. Data analysis and visualization via Origin Lab Pro 9.5 (Additive GmbH, Germany) Data analysis included an unpaired, two-sided t-test of two samples to check that given residual activities were sufficiently different between proteins (at significance levels p < 0.05, 0.01 or 0.001). HQNO (2-heptyl-4-quinolinol 1-oxide) was purchased from biomol GmbH, Hamburg. […]. The Ki^app value was adopted as the EC50 from the sigmoidal DoseRespFit. Further information can be found in Supporting Information Figures S2 to S5.
Dose response curves were created to rank the compounds due to their inhibition potency. Inhibitors were titrated in presence of 30nM bd-I. From Clark-type electrode monitored oxygen consumption, resulting oxygen reduction activity with 200µM Q1, reduced with 2mM DTT, was calculated as turnover in e^-/s. Turnover values were normalized, followed by a curve fitting with DoseResp Fit (1) in Origin LabPro9.5 (Additive GmbH, Germany). Data points are mean of minimum three independent measurements ± S.E.M.

A further test has as its target T2, cytochrome bd-II (Escherichia coli, UniProt P26459).
T2 construct: made in house; host or cells: E. coli C43 (DE3) Δ bo3 (CLY)
Kind of test: Oxygen reductase activity assay (Clark-type electrode) with purified cytochrome bd-II. The format is biochemical, E. coli. The conditions noted are these: compound 250 µM, 200 µM ubiquinone-1, 5 mM dithiothreitol, 120 nM enzyme, RT, 100% = DMSO, mean ± S.E.M. (n=3); for remaining activity at 250 µM: read-out: Rest activity in % of control activity bd-II.
Excerpt: as §1, §2

The target of test [1] is T3, cytochrome bo3 (Escherichia coli, UniProt P0ABI8).
T3 construct: made in house; host or cells: E. coli strain GO195 with pIRHisA
T3 sequence (P0ABJ3 whole entry): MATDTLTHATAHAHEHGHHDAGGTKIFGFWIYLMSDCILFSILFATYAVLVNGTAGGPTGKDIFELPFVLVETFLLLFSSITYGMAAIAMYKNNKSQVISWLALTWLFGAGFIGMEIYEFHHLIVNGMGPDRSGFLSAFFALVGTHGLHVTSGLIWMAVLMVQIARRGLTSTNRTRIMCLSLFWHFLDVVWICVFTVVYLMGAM
T3 sequence (P0ABJ1 25-315, further chain): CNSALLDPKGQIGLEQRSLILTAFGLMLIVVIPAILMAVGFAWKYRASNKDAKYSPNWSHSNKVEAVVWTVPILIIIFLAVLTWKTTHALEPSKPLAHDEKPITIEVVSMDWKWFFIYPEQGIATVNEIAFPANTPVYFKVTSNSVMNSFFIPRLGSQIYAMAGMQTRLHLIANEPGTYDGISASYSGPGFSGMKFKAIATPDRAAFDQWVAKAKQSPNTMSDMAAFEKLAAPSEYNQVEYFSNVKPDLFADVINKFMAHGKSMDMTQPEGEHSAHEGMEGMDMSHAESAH
T3 sequence (P0ABJ6 whole entry, further chain): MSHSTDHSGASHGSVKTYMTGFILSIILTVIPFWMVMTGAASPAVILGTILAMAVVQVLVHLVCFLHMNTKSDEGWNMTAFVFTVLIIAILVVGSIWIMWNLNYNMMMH
T3 sequence (P0ABI8 whole entry): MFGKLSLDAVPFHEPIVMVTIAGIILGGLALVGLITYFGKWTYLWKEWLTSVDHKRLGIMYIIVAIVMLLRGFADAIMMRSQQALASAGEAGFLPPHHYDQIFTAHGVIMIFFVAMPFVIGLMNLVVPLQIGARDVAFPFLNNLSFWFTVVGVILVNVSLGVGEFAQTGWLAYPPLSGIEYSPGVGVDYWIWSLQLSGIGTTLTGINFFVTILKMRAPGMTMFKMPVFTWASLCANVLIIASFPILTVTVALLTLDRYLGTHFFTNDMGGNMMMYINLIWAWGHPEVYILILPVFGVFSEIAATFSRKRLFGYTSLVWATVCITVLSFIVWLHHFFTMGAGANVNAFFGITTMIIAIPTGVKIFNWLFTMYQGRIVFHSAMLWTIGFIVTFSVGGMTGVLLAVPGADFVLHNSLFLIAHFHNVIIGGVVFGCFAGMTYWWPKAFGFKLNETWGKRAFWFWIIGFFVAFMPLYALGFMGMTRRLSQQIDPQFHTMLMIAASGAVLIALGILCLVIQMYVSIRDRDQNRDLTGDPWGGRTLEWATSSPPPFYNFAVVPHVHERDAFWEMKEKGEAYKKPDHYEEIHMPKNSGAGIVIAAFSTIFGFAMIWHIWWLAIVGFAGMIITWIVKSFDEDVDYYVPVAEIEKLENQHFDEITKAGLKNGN
Kind of test: Oxygen reductase activity assay (Clark-type electrode) with purified cytochrome bo3. The format is biochemical, E. coli. The conditions noted are these: for remaining activity at 250 µM / Rest activity in % of control activity bo3: compound 250 µM, 200 µM ubiquinone-1, 5 mM dithiothreitol, 30 nM enzyme, RT, 100% = DMSO, mean ± S.E.M. (n=3); for remaining activity at 250 µM: read-out: Rest activity in % of control activity bo3; for Ki: final enzyme concentration 30 nM, EC50 of DoseResp fit, read-out: Ki^app bo3.
Excerpt: as §1, §2

In test [2] the target is T3, cytochrome bo3. Conditions: values in brackets, determined spectrophotometrically; read-out: Ki^app bo3 (previous data) (converted); cited from earlier work.
The next test has as its target cytochrome bd. Details: method as in PMID 9880809. The conditions noted are these: values in brackets, determined spectrophotometrically; read-out: Ki^app bd-I (previous data) (converted); cited from earlier work.
The subject of test [3] is cytochrome bc1 complex (complex III) from beef heart mitochondria. Details: method as in PMID 8206232. The conditions noted are these: isolated complex III; cited from earlier work.
For the next test, the system named is B. subtilis. Also on record: method as in PMID 3106289. The conditions noted are these: cited from earlier work.
Test [4] has as its system multidrug efflux transporter deficient TolC strain of Escherichia coli. Conditions: cited from earlier work.
Test [5] deals with human U-2 OS osteosarcoma cells. Details: method as in PMID 23946854. The conditions noted are these: upon treatment; cited from earlier work.

T1 sequence (P0ABJ9 whole entry): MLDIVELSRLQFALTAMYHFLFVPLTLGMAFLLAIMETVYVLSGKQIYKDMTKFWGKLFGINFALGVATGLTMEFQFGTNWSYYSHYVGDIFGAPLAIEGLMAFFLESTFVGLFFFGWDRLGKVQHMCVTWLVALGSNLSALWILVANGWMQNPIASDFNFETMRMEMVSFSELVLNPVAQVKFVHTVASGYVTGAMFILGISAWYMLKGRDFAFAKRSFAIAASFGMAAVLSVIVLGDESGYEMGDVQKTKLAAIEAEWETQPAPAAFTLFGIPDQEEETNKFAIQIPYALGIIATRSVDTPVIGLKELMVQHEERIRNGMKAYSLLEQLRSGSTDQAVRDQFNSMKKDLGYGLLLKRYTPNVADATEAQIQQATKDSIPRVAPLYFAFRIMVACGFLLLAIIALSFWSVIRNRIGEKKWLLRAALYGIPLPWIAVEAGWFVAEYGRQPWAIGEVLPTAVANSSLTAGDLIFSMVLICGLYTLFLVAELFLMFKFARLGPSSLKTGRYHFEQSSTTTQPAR
T1 sequence (P0ABK2 whole entry, further chain): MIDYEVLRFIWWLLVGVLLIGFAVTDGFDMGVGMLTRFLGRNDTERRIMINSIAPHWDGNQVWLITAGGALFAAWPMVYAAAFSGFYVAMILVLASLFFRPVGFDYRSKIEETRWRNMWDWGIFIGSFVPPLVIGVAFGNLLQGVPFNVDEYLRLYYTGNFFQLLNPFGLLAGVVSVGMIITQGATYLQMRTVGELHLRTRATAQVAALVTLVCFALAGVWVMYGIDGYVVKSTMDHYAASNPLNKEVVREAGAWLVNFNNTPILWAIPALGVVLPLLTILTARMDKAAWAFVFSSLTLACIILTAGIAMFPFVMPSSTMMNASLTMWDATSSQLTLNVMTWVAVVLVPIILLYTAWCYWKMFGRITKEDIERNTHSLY
T1 sequence (P56100 whole entry, further chain): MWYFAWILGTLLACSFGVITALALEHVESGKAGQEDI
T2 sequence (P26459 whole entry): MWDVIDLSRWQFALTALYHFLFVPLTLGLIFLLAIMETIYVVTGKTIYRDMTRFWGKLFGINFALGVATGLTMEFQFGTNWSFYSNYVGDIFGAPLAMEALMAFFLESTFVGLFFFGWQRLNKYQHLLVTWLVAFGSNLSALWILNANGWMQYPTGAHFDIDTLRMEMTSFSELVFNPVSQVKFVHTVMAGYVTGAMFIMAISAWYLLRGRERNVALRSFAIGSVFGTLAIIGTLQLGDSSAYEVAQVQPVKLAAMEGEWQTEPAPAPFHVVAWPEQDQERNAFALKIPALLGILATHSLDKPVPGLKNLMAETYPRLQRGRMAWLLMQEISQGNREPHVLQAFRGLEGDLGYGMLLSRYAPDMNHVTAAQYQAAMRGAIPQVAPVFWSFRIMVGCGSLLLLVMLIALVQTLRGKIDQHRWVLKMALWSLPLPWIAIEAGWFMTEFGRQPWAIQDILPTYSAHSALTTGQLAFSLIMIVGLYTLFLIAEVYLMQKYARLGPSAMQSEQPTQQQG
T2 sequence (P24244 whole entry, further chain): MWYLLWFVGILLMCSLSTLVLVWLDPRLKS
T2 sequence (P26458 whole entry, further chain): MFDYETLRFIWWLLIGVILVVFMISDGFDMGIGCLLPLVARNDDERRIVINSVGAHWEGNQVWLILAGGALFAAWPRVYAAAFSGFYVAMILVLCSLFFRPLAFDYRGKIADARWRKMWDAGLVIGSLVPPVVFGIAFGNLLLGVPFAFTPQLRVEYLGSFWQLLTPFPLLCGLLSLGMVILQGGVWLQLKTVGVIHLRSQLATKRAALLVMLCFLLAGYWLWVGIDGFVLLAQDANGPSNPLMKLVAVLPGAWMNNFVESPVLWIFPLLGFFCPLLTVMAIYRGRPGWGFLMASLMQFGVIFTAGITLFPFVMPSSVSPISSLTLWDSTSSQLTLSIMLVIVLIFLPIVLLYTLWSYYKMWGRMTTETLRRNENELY

As to `CCCCCCc1c(C)[nH]c2ccccc2c1=O` [AD6-1], the remaining activity at 250 µM was 3.45 ± 0.19% at cytochrome bd-I, 1.3 ± 0.17% on cytochrome bd-II and 73.2 ± 1.7% at cytochrome bo3 [1].

Take `O=c1c2c([nH]c3ccccc13)CCCCC2` [AD5-cyclo]: the “Rest activity in % of control activity bd-I” value at cytochrome bd-I is 5.67 ± 1.14%. For the same compound, the remaining activity at 250 µM at cytochrome bd-I was below 10%; at cytochrome bo3 [1], 70.5 ± 2.6%. In addition, the “Rest activity in % of control activity bd-II” value at cytochrome bd-II was determined as 1.51 ± 0.15%.

Regarding `CCCCCCCCCCCc1c(CCCC)c(=O)c2ccccc2n1O` [AC4-11], the Ki was 0.144 µM at cytochrome bo3 [2], 0.34 µM on cytochrome bd and 0.106 ± 0.013 µM on cytochrome bd-I. Further, the remaining activity at 250 µM at cytochrome bd-I is 1.19 ± 0.42%; on cytochrome bd-II, 2.14 ± 0.35%; at cytochrome bo3 [1] it was 0.863 ± 0.29%.

Consider `CCCCCCCCc1c(C)[nH]c2ccccc2c1=O` [AD8-1], for which the remaining activity at 250 µM was determined as 3.59 ± 0.11% on cytochrome bd-I, 1.36 ± 0.21% at cytochrome bd-II and 94.6 ± 3.6% at cytochrome bo3 [1]. Moreover, the “increase of Ki^app value compared to AD7-2” value on cytochrome bd-I (cytochrome bd-I) is given as “sixfold”.

Regarding `CCCCCCCCCCCc1cc(=O)c2ccccc2[nH]1` [AD0-11], the remaining activity at 250 µM was above 30% on cytochrome bd-I, 8.4 ± 0.36% at cytochrome bd-II and 23% at cytochrome bo3 [1]. In addition, the “Rest activity in % of control activity bo3” value at cytochrome bo3 [1] came to 23.3 ± 2.3%.

Take `CCCCCCCCCCc1c(C)c(=O)c2ccccc2n1O` [AC1-10]: the Ki on cytochrome bo3 [2] was 0.013 µM; at cytochrome bd, 0.28 µM; at cytochrome bd-I, 0.082 ± 0.011 µM. Further, the remaining activity at 250 µM turned out to be 1.39 ± 0.19% on cytochrome bd-I and 0.626 ± 0.08% on cytochrome bo3 [1].

As to `CCCCCc1c(C)[nH]c2ccccc2c1=O` [AD5-1], the remaining activity at 250 µM on cytochrome bd-I was 4 ± 0.13%; at cytochrome bd-II it was 1.85 ± 0.18%; on cytochrome bo3 [1] it was 70.4 ± 1.5%.

Take `CCCCc1c(C)[nH]c2ccccc2c1=O` [AD4-1]: the remaining activity at 250 µM came out at 5.8 ± 0.39% on cytochrome bd-I, 1.33 ± 0.26% on cytochrome bd-II and 69.7 ± 4.3% at cytochrome bo3 [1].

On to “2-(2-Heptyl)-3-methyl-4(1H)-quinolone [AD7-1]”, for which the figures for the “Rest activity in % of control activity bd-I” value at cytochrome bd-I and on cytochrome bd-I (listed as AD7-1*) were 4.90 ± 1.5% and 3.46 ± 0.17%, respectively. The results for the “Rest activity in % of control activity bd-II” value on cytochrome bd-II and at cytochrome bd-II (listed as AD7-1*) were 1.18 ± 0.12% and 1.71 ± 0.48%, respectively. Besides, the “Rest activity in % of control activity bo3” value at cytochrome bo3 [1] is reported as 63.6 ± 1.3%; at cytochrome bo3 [1] (listed as AD7-1*), 47.0 ± 1.9%.

As for `CCCCCCCCCCCc1cc(=O)c2ccccc2[nH]1` [AD11-0, 2-undecylquinolone], in [3], the pIC50 was 6.66.

For `CCCCCCCCCCCc1[nH]c2ccccc2c(=O)c1CCC` [AD3-11], the remaining activity at 250 µM came out at 0.453 ± 0.28% on cytochrome bd-I, 1.45 ± 0.18% at cytochrome bd-II and 47.1 ± 7% on cytochrome bo3 [1]. Besides, the “fold higher inhibitory potential compared to AD0-11” value on cytochrome bd-I (cytochrome bd-I) is on record as 188 fold. Moreover, the “ratio Ki^app-bo3 vs. Ki^app-bd-I” value on cytochrome bd-I (selectivity bd-I over bo3) is reported as “around 300”. In addition, at cytochrome bo3 [1] (at 250 µM, read-out: inhibitory effect on cytochrome bo3), the inhibition at 250 µM is around 50%. The Ki at cytochrome bo3 [1] was above 100 µM.

On to `Cc1cc(O)c2ccccc2n1` [Compound 2-MQ, 2-methyl-4-quinolinol, reference compound], for which the remaining activity at 250 µM at cytochrome bd-I was above 30%; at cytochrome bd-II it was 17.8 ± 0.55%; at cytochrome bo3 [1] it was 64.2 ± 2.6%.

As for `COc1ccc2[nH]c3c(c(=O)c2c1)CCCC3` [Compound 7-MTHA, 7-methoxy-1,3,4,10-tetrahydro-9(2H)-acridinone, reference compound], the remaining activity at 250 µM on cytochrome bd-I came out at 35.7 ± 5.7%; at cytochrome bd-II it was 9.6 ± 0.16%; on cytochrome bo3 [1], 69.3 ± 1.7%.

For `CCCCCCCc1c(CC)[nH]c2ccccc2c1=O` [AD7-2], the remaining activity at 250 µM on cytochrome bd-I was determined as 1.89 ± 1.8%; at cytochrome bd-II, 1.4 ± 0.49%; at cytochrome bo3 [1], 33.3 ± 1.4%. Also, the “Ki^app fold lower compared to AD4-1” value on cytochrome bd-I (cytochrome bd-I) worked out at 45 fold.

Consider `CCCCCCCc1cc(O)c2ccccc2[n+]1[O-]` [HQNO, 2-heptyl-4-quinolinol 1-oxide, reference compound], for which the remaining activity at 250 µM was found to be 7.29 ± 0.45% on cytochrome bd-I, 6.44 ± 1.3% on cytochrome bd-II and 4.53 ± 0.58% at cytochrome bo3 [1]. Moreover, the Ki was 3.6 ± 0.5 µM on cytochrome bd-I and 2.6 ± 0.4 µM at cytochrome bo3 [1].

For `CC(C)=CCC/C(C)=C/CC/C(C)=C/Cc1c(C)n(O)c2ccccc2c1=O` [AurC, Aurachin C], in the test with B. subtilis, the minimum inhibitory concentration is 0.15 mg/L (≈ 0.395 µM).

On to `CCCCCCCCCCCc1c(CC)c(=O)c2ccccc2n1O` [AC2-11], for which the Ki was 0.046 µM on cytochrome bo3 [2], 0.44 µM at cytochrome bd, 0.034 ± 0.006 µM at cytochrome bd-I and 0.031 ± 0.006 µM on cytochrome bo3 [1]. In addition, the values for the remaining activity at 250 µM on cytochrome bd-I, at cytochrome bd-II and at cytochrome bo3 [1] were 1.09 ± 0.09%, 0.73 ± 0.21% and 0.445 ± 0.08%, respectively.

`CC(C)=CCC/C(C)=C/CC/C(C)=C/Cc1c(C)[nH]c2ccccc2c1=O` [AurD, Aurachin D]: in test [4], the antibacterial effect entry was “moderate antibacterial effect”. Besides, the minimum inhibitory concentration in the test on B. subtilis was 0.15 mg/L (≈ 0.413 µM). In addition, the “mitochondrial membrane potential reduced to” value in test [5] is listed as 50–80%. In addition, the remaining activity at 250 µM on cytochrome bd-I stood at 3.93 ± 0.64%. Also, at cytochrome bd-II, the remaining activity at 250 µM came out at 1.62 ± 0.19%. At cytochrome bo3 [1], the “Rest activity in % of control activity bo3” value was 29.9 ± 2.4%, the remaining activity at 250 µM turned out to be 30% and the Ki is above 10 µM.
